Test results from patent US20260102407A1, “TREATMENT METHODS” (priority 2020, published 2026).

Key:
rabbits = experiment: GLP ocular tolerance study, single intravitreal injection; assay type: in vivo, rabbit; conditions: single intravitreal injection 10 μg/50 μl, after 28 days
THP-1 adhesion to HMEC = experiment: Endothelial-monocytic cell adhesion assay; assay type: cell-based, human; conditions: 20 ng/ml IL-1β, calcein-labeled THP-1
Experimental: Endothelial-monocytic cell adhesion assay. HMEC (80-90% confluency) in 96-well plates were deprived of serum for 24 h and treated with compound at indicated concentrations for 1 h then incubated with IL-1β (20 ng/ml) for 4 h. Meanwhile THP-1 were labeled with 5 μM calcein (5×10^6 cells/ml, BD Bioscience) for 30 min at 37° C. followed by washing 3 times with PBS. THP-1 (2.5×10^5 cells/well) were then added for 30 min, unbound cells were washed off 3 times in PBS. Adhesion of calcein-labeled THP-1 to the endothelium layer was determined in a fluorescent plate reader at excitation 485 nm and emission 530 nm.

ICAM-1 = experiment: Collagen antibody-induced arthritis, hind limb immunohistochemistry for ICAM-1; assay type: in vivo, mouse; conditions: CAIA mice; Day 14 hind limbs
Experimental: Collagen antibody-induced arthritis. Arthritis was induced in female Balb/c mice (6-8 week-old) as previously described with a commercially obtained cocktail of 5 monoclonal antibodies to type II collagen at 2 mg/mouse (Chondrex, Inc. Redmond, WA) followed by LPS (50 μg/mouse) with or without BT2 (3 or 30 mg/kg mouse) in DMSO vehicle was administered i.p. on Day 3. Hind footpad thickness was measured on Day 9 using digital calipers. Mice were sacrificed on Day 14 and microCT scanning of hind limbs was performed.
Immmunohistochemical staining of hind limbs for VCAM-1 and ICAM-1 and analysis. Formalin-fixed, paraffin embedded of hind limbs were sectioned (5 μm). Dako EnVision Rabbit Kit (cat. K4011, Dako) was used for immmunohistochemical staining for VCAM-1 and ICAM-1. […] Integrated optical density (IOD) of positive staining in ankle joint (tibia and talus) articular cartilage was assessed for VCAM-1 and ICAM-1 using Image-Pro Plus software (Cybernetics, Bethesda, MD, USA). Area (μm^2) of ankle joint articular cartilage was measured using Image-Pro Plus software. Total cell number and positive staining cell number in ankle joint articular cartilage were counted manually using Image-Pro Plus software. […]

[1] = tested on: Brown Norway pigmented rats; experiment: Rat choroidal laser injury model, fluorescein leakage; assay type: in vivo; conditions: 192 μg IVT, Days 0 and 7, HRA score Days 14 and 21
Description: Rat choroidal laser injury model. Male Brown Norway pigmented rats (8-14 week-old) were anesthetized by an intramuscular injection of Rompun® (xylazine)/Imalgene® (ketamine). Pupils were dilated by instillation of one drop of 0.5% tropicamide before laser burn. Six burns were created in both eyes on Day 0 by applying 170 mW of 532 nm laser light (Viridis laser, Quantel, France) on 75 μm spots around the optic nerve, between the main retinal vessel branches, for 0.1s, through the slit lamp and contact lens. Production of a bubble at the time of laser application confirmed the rupture of Bruch's membrane. Compounds in vehicle (saline containing 0.01% DMSO and 0.5% Tween 80, sonicated) in 2-5 μl were injected IVT on Days 0 and 7 under an operating microscope using a 30G needle mounted on a 100 μl Hamilton syringe. Kenacort was administered IVT into each eye on Day 0. Alternatively, aflibercept/Eylea in vehicle (saline) was injected IVT 6 times (Days 0, 3, 7, 10, 14, 17). […] After anaesthesia, 10% sodium fluorescein (250 μl/100 g body weight) was injected subcutaneously, and ocular fluorescence was recorded 10 min after dye injection. Fluorescein leakage was evaluated on Days 14 and 21 in the angiograms by two examiners masked to the study groups and graded for fluorescein intensity as follows: score 0: no leakage; 1: slightly stained; 2: moderately stained; 3: strongly stained.

AP-1 response element = AP-1 response element Firefly luciferase high-throughput screen in 293/AP-1-luc cells; assay type: cell-based, human; conditions: 11-point titration curves; TPA-induced 293/AP-1-luc cells
Description: High-throughput screen of compound library. Hits were selected from the ˜100,000 compound Lead Discovery Library at the HTS Facility at Walter & Eliza Hall Institute of Medical Research (WEHI, Bundoora, Vic) with a commercially-available human embryonic kidney (HEK)-293 cell-based assay in 384-well microtitre plates in which Firefly luciferase was driven by multiple copies of the AP-1 response element (293/AP-1-luc cells, Panomics, Fremont, CA). Briefly, the cell-based assay involved plating 5×10^3 cells into 384-well plates in DMEM, pH 7.4 containing 10% FBS. After ˜18 h, the cells were induced with 10 ng/ml […] (TPA) (Sigma, St Louis, MO) in the absence or presence of test compound, then after ˜18 h, luciferase activity was measured using a luminometer. The hit rate of the primary screen was 2.4%. […] A substructure filter was then applied to remove pan-assay interference compounds (Baell, J. B., et al., J Med Chem 53, 2719-2740 (2010)) and using the most stringent filtering criteria 256 hits were selected for further study. After dose response testing, 24 compounds with molecular weight <400 Da were reordered from suppliers and tested in secondary assays.

SMILES: CCOC(=O)Nc1ccc2c(c1)C(=O)N(CC)c1ccccc1O2 [BT2, (10-ethyl-11-oxo-10,11-dihydro-dibenzo[b,f][1,4]oxazepin-2-yl)-carbamic acid ethyl ester]
- ocular tolerance (rabbits): well tolerated macroscopically and histologically
- THP-1 adhesion to IL-1β-treated endothelial cells (THP-1 adhesion to HMEC): inhibited by BT2
- ICAM-1 expression in bone (ICAM-1): inhibit VCAM-1 and ICAM-1 expression
- reduction of retinal permeability (fluorescein leakage) [1]: ~50%
- IC50, AP-1 luciferase screen (AP-1 response element): micromolar or submicromolar range
